Results reported in the supplement of paper PMC13380429.

How the values were obtained:
Details in all cases: 72 h
Calu-3 [1] = experiment: relative viability EC50 (midpoint between 100% and the lowest measured viability); higher = less toxic
Caco-2 [2] = experiment: as above
HepG2 [3] = experiment: as above
Vero E6 [4] = experiment: as above
U2OS [5] = experiment: as above
Calu-3 [6] = experiment: cell viability relative to DMSO; higher = less toxic
Caco-2 [7] = experiment: as above
HepG2 [8] = experiment: as above
Vero E6 [9] = experiment: as above
U2OS [10] = experiment: as above
Calu-3 [11] = experiment: drug sensitivity score (DSS) for viability; higher = more toxic; extreme values may be limits of the assay
Caco-2 [12] = experiment: as above
HepG2 [13] = experiment: as above
Vero E6 [14] = experiment: as above
U2OS [15] = experiment: as above

| SMILES | relative viability EC50 (Calu-3 [1]) [nM] | relative viability EC50 (Caco-2 [2]) [nM] | relative viability EC50 (HepG2 [3]) [nM] | relative viability EC50 (Vero E6 [4]) [nM] | relative viability EC50 (U2OS [5]) [nM] | cell viability (Calu-3 [6]; 1 nM) [%] | cell viability (Calu-3 [6]; 10 nM) [%] | cell viability (Calu-3 [6]; 100 nM) [%] | cell viability (Calu-3 [6]; 1000 nM) [%] | cell viability (Calu-3 [6]; 10000 nM) [%] | cell viability (Caco-2 [7]; 1 nM) [%] | cell viability (Caco-2 [7]; 10 nM) [%] | cell viability (Caco-2 [7]; 100 nM) [%] | cell viability (Caco-2 [7]; 1000 nM) [%] | cell viability (Caco-2 [7]; 10000 nM) [%] | cell viability (HepG2 [8]; 1 nM) [%] | cell viability (HepG2 [8]; 10 nM) [%] | cell viability (HepG2 [8]; 100 nM) [%] | cell viability (HepG2 [8]; 1000 nM) [%] | cell viability (HepG2 [8]; 10000 nM) [%] | cell viability (Vero E6 [9]; 1 nM) [%] | cell viability (Vero E6 [9]; 10 nM) [%] | cell viability (Vero E6 [9]; 100 nM) [%] | cell viability (Vero E6 [9]; 1000 nM) [%] | cell viability (Vero E6 [9]; 10000 nM) [%] | cell viability (U2OS [10]; 1 nM) [%] | cell viability (U2OS [10]; 10 nM) [%] | cell viability (U2OS [10]; 100 nM) [%] | cell viability (U2OS [10]; 1000 nM) [%] | cell viability (U2OS [10]; 10000 nM) [%] | drug sensitivity score (Calu-3 [11]) | drug sensitivity score (Caco-2 [12]) | drug sensitivity score (HepG2 [13]) | drug sensitivity score (Vero E6 [14]) | drug sensitivity score (U2OS [15]) |
| --- | --- | --- | --- | --- | --- | --- | --- | --- | --- | --- | --- | --- | --- | --- | --- | --- | --- | --- | --- | --- | --- | --- | --- | --- | --- | --- | --- | --- | --- | --- | --- | --- | --- | --- | --- |
| CCCN(CCC)CCc1ccc(OC)c(OCCc2ccccc2)c1 [NE-100] | > 10000 | > 10000 | > 10000 | > 10000 | > 10000 | 95.1 | 93.5 | 85.9 | 107 | 105 | 105 | 102 | 89.8 | 92.9 | 91.3 | 101 | 98.5 | 98.6 | 99.3 | 93 | 107 | 106 | 99.3 | 103 | 94.8 | 105 | 100 | 104 | 101 | 97.9 | 0 | 0.1 | 0 | 0 | 0 |
| Cc1c(-c2ccccc2F)[nH]c(N)c1C#N [NS-8] | > 10000 | > 10000 | > 10000 | > 10000 | > 10000 | 104 | 101 | 83.6 | 103 | 99.2 | 96.9 | 90.1 | 105 | 97.5 | 105 | 93.1 | 98.3 | 90.7 | 96.9 | 116 | 95.2 | 99.1 | 96.2 | 97.7 | 109 | 98.1 | 95.9 | 99.8 | 93.9 | 103 | 0 | 0 | 0 | 0 | 0 |
| C[C@H](Nc1cc(-c2cnn(C)c2)cc(Nc2cnccn2)n1)c1ccc(F)cc1 [NS-018] | 517 | 1580 | 1540 | 1760 | 1880 | 96.4 | 89.1 | 91.9 | 62.7 | 42 | 99.1 | 102 | 104 | 83.6 | 32 | 101 | 102 | 102 | 75.6 | 3.1 | 106 | 100 | 99.7 | 83.4 | 14.5 | 97.6 | 95.1 | 100 | 87.6 | 26.4 | 8.1 | 6.3 | 9.1 | 7.4 | 6.1 |
| O=C(Nc1cc(C(F)(F)F)ccc1O)Nc1cc(C(F)(F)F)ccc1O [NS-1643] | > 10000 | > 10000 | > 10000 | > 10000 | > 10000 | 102 | 94.7 | 103 | 97.4 | 104 | 108 | 101 | 102 | 95 | 88.3 | 95.3 | 105 | 110 | 94.7 | 92.5 | 98.8 | 103 | 100 | 99.1 | 95.1 | 99.3 | 100 | 104 | 102 | 96.9 | 0 | 0.2 | 0 | 0 | 0 |
| O=C(Nc1cccc(C(F)(F)F)c1)Nc1ccc(Br)cc1-c1nnn[nH]1 [NS-3623] | > 10000 | > 10000 | > 10000 | > 10000 | > 10000 | 107 | 92.8 | 95.3 | 102 | 100 | 98 | 99.8 | 100 | 97.8 | 101 | 102 | 102 | 92.5 | 98.7 | 112 | 93.3 | 101 | 92.4 | 94.6 | 110 | 99.6 | 97.8 | 97.6 | 99.2 | 96.2 | 0 | 0 | 0 | 0 | 0 |
| CCNC(=O)c1noc(-c2cc(C(C)C)c(O)cc2O)c1-c1ccc(CN2CCOCC2)cc1 [NVP-AUY922] | 28.1 | 14.9 | 6.7 | 70.2 | 12 | 84.2 | 83.9 | 46 | 37.3 | 29.6 | 100 | 77.1 | 30.3 | 28.2 | 31.4 | 103 | 27.5 | 1.2 | 0.8 | 1.2 | 104 | 106 | 47.1 | 26.6 | 25.6 | 93 | 57.9 | 3 | 3.5 | 1 | 20.5 | 25.1 | 38.6 | 19.8 | 34.8 |
| Cn1c(=O)n(-c2ccc(C(C)(C)C#N)cc2)c2c3cc(-c4cnc5ccccc5c4)ccc3ncc21 [NVP-BEZ235] | 209 | 156 | 1190 | 552 | 585 | 95.4 | 98.5 | 77.2 | 40.6 | 28.7 | 98.6 | 102 | 85.2 | 40.1 | 40.3 | 99.7 | 110 | 98.4 | 71.8 | 30.1 | 98.4 | 102 | 93.9 | 57.5 | 38.1 | 101 | 99.9 | 98.9 | 37.9 | 20.7 | 13.7 | 13.4 | 7.5 | 8.8 | 11.7 |
